# Columns and labels:
# [1] = tested on: primary OG2 neural progenitor cells; assay: iPS cell induction from neural progenitor cells after retroviral transduction; assay type: cell-based, mouse
# Procedure: The reporter neural progenitor cells were generated using a well established protocol by differentiating the Oct4-GiP mESCs grown in monolayer on gelatin in a chemically defined medium/CDM condition in the absence of serum and other growth factors/cytokines at low cell density for eight days, followed by neurophere formation and subsequent serial passaging in single cells in neural cell expansion media supplemented with 10 ng/ml of bFGF and EGF in monolayer for over six passages/24 days. The resulting neural progenitor cells were homogenous by cell morphology and neural marker expression, and were confirmed to be GFP negative and puromycin sensitive. Such neural progenitor cells plated in monolayer in conventional mESC growth media were transduced with combinations of four, three, or two of the four factors, followed by treating the transduced cells with individual small molecules from a small known drug collection in a typical 6-well format. The compound treatment and culture were continued for additional ten days before puromycin was added. The number of green and puro-resistant colonies was counted at day 14. In comparison to the only four-gene transduced neural cells as the positive control, compound conditions that generated more green colonies than the corresponding gene-only conditions were picked as primary hits. To further confirm these primary hit conditions, we chose to use a late passage of mouse CNS neural progenitor cells (Do, J. T. et al., Stem Cells 25, 1013-1020 (2007)) that were derived from fetal brain of OG2^+/−/ROSA26^+/− transgenic mice (which contain an Oct4-GFP reporter) and expanded in monolayer under the same neural CDM condition as the above with 10 ng/ml of bFGF and EGF. Such cells truly from a non-pluripotent tissue would be devoid of concerns of any contaminating ES cell in the above screening system, which is highly unlikely with all appropriate controls. Similar culture conditions and reprogramming assays were performed using the OG2 neural progenitor cells except that puromycin was not used and green colonies were picked out and characterized by staining of Nanog, SSEA1 and ALP.
# mESC-derived or primary OG2 mouse neural progenitor cells were plated into Matrigel (1:50, BD Biosciences) coated 6-well plates at 3.5×10^4 cells/well in the neural progenitor cell expansion media. After one day these cells were transduced with retrovirus for overnight, and the medium was changed into the mESC growth media [DMEM, 5% FBS, 10% KSR, 1× non-essential amino acids (Gibco), 2 mM L-glutamine (Gibco), 0.1 mM β-mercaptoethanol (Gibco) and 10^3 unit/ml LIF (Chemicon)] with or without BIX01294 (0.5-1 μM). GFP-positive iPS cell colonies appeared after 9-14 days, and were picked out and expanded on MEF feeder cells with the mESC growth media.
# [2] = tested on: mouse embryonic fibroblasts (129 or OG2 MEFs); assay: Screen for iPSC generation from MEFs transduced with Oct4/Klf4 (OK); assay type: cell-based
# Procedure: Unmodified MEFs derived from E13-14 embryos of the 129 mice were used for the initial screen. MEFs were plated on Matrigel at 3.5×10^4 cells/well of a 6-well plate and transduced with OK (retroviral vectors expressing Oct4 and Klf4) alone. Within 14-21 days, treated cells were assessed for the appearance of colonies that had the characteristic embryonic stem cell (ESC) colony morphology and were positive for the pluripotency marker alkaline phosphatase (ALP). Such OK-transduced cells generated only a few small non-compact colonies, which were weakly positive for ALP expression. These colonies initially appeared within 21 days after viral transduction and were difficult to expand. Therefore, such assay system offered a clean background for the identification of small molecules having desirable reprogramming inducing activity. Using this system, compounds from a library of around 2000 known small molecules (see Experimental Procedures below) were screened and were identified as hits when they induced the appearance of ESC colonies that were strongly positive for ALP within 14-21 days after treatment. This image-based method provided a more accurate assessment of reprogramming as compared to homogenous reporter-based assay. BIX appeared to have the strongest effect with reproducible induction of more than 1-2 compact ESC-like colonies with high ALP expression. We observed that when MEFs were treated with BIX after OK viral transduction, compact colonies with strong ALP expression could be readily detected within approximately 14-21 days. These cells were also positive for Nanog, Oct4 and SSEA-1 expression. […] However, the reprogramming efficiency in MEFs transduced with OK and treated with BIX was still low, about 2 colonies/3.5×10^4 cells, in comparison to the four factor-induced reprogramming of MEFs or the OK/BIX NPC reprogramming (Shi, Y. et al., Cell Stem Cell, 2:525-528 (2008)). Therefore, we conducted a second screen using a similar protocol, but where BIX was added to the basal media after OK viral transduction. This provided a more permissive platform to identify new small molecules that could further improve reprogramming efficiency. More importantly, this second screen could facilitate discovery of small molecules that impact reprogramming in a more specific manner, for example by acting on signal transduction pathways rather than on histone or DNA modifying enzymes. In this second screen, we again assayed the library of around 2000 known small molecules (see Experimental Procedures), and confirmed two compounds that were able to act in a synergistic manner with BIX to improve reprogramming based on the criteria of the screen. […] Therefore, RG108 was not pursued further for this study. Instead, we focused our phenotypic and functional characterization on another small molecule that was identified in the second screen, BayK, an L-calcium channel agonist. […] Therefore, BayK might play a more specific role in the reprogramming process. When 129 MEFs were transduced with empty retrovirus (negative control); no colonies observed. When 129 MEFs were transduced with OK without small molecules; few small flattened colonies with weak ALP expression present. […] When OK-transduced MEFs were treated with BIX in combination with BayK, a significant increase in the number of ALP^+ colonies that closely resemble the mESC morphology could be observed (˜7 colonies) as compared to OK-transduced MEFs treated with BIX alone (˜2 colonies).
# Primary 12952/SvPasCrlf (primary screen) or ROSA26^+/−/OG2^+/− (secondary screen) MEFs were plated onto Matrigel (1:50; BD Biosciences, Bedford, Mass.) coated dishes at a density of 3.5×10^4 cells per well of a 6-well plate. Twenty-four hours later, these cells were transduced overnight with defined retroviruses at 37° C., 5% CO2. […] (all products were from Invitrogen, Carlsbad, Calif., except where mentioned). […]
# [3] = tested on: mES R1 cells; assay: Proliferation assay; assay type: cell-based, mouse; details: 2 μM BayK, 1 μM BIX; 15, 24, 48 hours; vs DMSO
# Procedure: mES R1 cells were plated onto gelatin-coated 6-well plates at a density of 2×10^5 cells/well in complete mES cell media. Upon cell attachment, app. 12 hours, the cells were treated either with DMSO, 1 μM BIX, 2 μM BayK, and a combination of both, in triplicate. At 15, 24 and 48 hours, the cells were detached using trypsin, and counted using a hemocytometer. Trypan blue (Sigma-Aldrich, St. Louis, Mo.) was used for dead cell exclusion.
structure (smiles),measurement,setting,value
COc1cc2nc(N3CCCN(C)CC3)nc(NC3CCN(Cc4ccccc4)CC3)c2cc1OC [BIX01294],appearance of GFP+ iPS cell colonies after transduction and treatment,[1]; OG2 neural progenitor cells transduced with Oct4/Klf4 retroviruses,12 days
same,kinetics of reprogramming,"[1]; Oct4/Klf4 viral transduction, BIX01294 treatment",didn't significantly shorten the kinetics of reprogramming
same,reprogramming efficiency,"[1]; Oct4/Klf4 viral transduction, BIX01294 treatment (0.5-1 μM)",significantly improve the reprogramming efficiency to or higher than the level of using viral transduction of all four factors
same,generation of iPS cells in the absence of Oct4 expression,"[1]; viral transduction of Klf4, Sox2 and cMyc with simultaneous treatment",can also generate iPS cells
same,reprogramming efficiency (GFP+ colonies),"[2]; OG2 MEFs transduced with OK, FIG. 3",2.5±0.7 colonies per 3.5×10^4 cells
same,number of ALP+ colonies that closely resemble the mESC morphology,"[2]; OK-transduced 129 MEFs, 14-21 days",about 2 colonies
same,proliferation of mES cells (cell number),[3],does not increase the proliferation of mES cells

# Source: US9771563B2, “Chemical approaches for generation of induced pluripotent stem cells” (The Scripps Research Institute, priority 2008, dated 2017)
